Where two headings read alike, the source gives them in different places.
Tests used:
[1] = tested on: DBTRG-05MG; experiment: Cytotoxicity (IC50) on DBTRG-05MG; assay type: cell-based; conditions: Homo sapiens
Procedure: Human tumor cell lines (MCF-7, CL1-5, HT-29, Caco-2), human umbilical vascular endothelial cells (HUVEC), and human dermal fibroblasts (HDF) were tested for sensitivity on Angelicae sinensis extracts, ligustilide, n-butylidenephthalide and its derivatives in vitro. The DBTRG-05MG, BCM, HL-60 and J5 cells were grown in RPMI-1640 medium containing 10% fetal calf serum and 100 ng/ml penicillin and […] streptomycin at 37° C. in a humidified atmosphere with 5% CO2. The G5T/VGH, RG2, Ni 8, SVEC and Balb/3T3 cells were cultured in DMEM with 10% fetal calf serum and 100 ng/ml penicillin and […] streptomycin at 37° C. in 5% CO2. Mycoplasma infection of the culture cells was excluded by PCR screening methods before each experiment.
The effects on cell viability after the treatments with different concentrations of the Angelicae sinensis extracts or the active components purified therefrom were evaluated by modified MTT assay in triplicate. Briefly, the cells (5×10^3) were incubated into 96-well plates containing 100 μl of a growth medium. The cells were permitted to adhere for 24 hours, then treated with 100 μl of the herbal extracts or the active components dissolved in the medium. The control contained DMSO of <0.02% (v/v). After 24, 48 and 72 h incubation, the drug-containing medium was replaced by 50 μl of fresh medium, and cells in each well were incubated in 50 μl of 400 μg/ml MTT for 6-8 h. The medium and MTT were removed later and 100 μl of DMSO was added to each well and to the control, to dissolve the soluble components. Absorbance at 550 nm of the solutions was measured with MRX Microtiter Plate Luminometer (DYNEX, USA). The absorbance of untreated cells was considered as 100%. To evaluate the effects of the extracts or the active components on cell growth rate of GBM cells, 5×10^3 exponentially growing cells were treated with different concentrations for 24, 48, or 72 h. The cytotoxicity of each test substance was determined as an IC50 value, which represents the drug concentration required to cause 50% inhibition. […]

[2] = tested on: DBTRG-05MG cells; experiment: Western blot analysis of apoptosis molecules; assay type: cell-based, human; conditions: BP 400 μM
Procedure: DBTRG-05MG cells (human GBM cells) were treated with AS-C (70 μg/ml) for 0, 6, 12, 24 and 48 hours. In another test, DBTRG-05MG cells were treated with BP (400 μM) for 0, 1.5, 3, 6, 12, 24 and 48 hours. The cell pellets were re-suspended in lysis buffer ([…] Tris-HCl, pH 7.5, 1 mM EGTA, 0.5% CHAPS, 10% (v/v) glycerol, 5 mM β-2-mercaptoethanol and 0.1 mM phenylmethylsulfonyl fluoride) and incubated on ice for 30 min, and then centrifuged at 13000×rpm at 4° C. for 20 minutes. The protein concentration of whole cell lysates was measured with BCA protein assay kit (Pierce, Rockford, Ill.) following the manufacturer's instructions. The cell lysates (20 μg/lane) were electrophoresed on 10-12% SDS-PAGE (Bio-Rad, Hercules, Calif.). Proteins were transferred to polyvinyldenefluoride (PVDF) membranes (Amersham Lifesciences, Piscataway, N.J.). The membranes were masked for 1 hour at room temperature with 5% skim milk as the blocking agent, and incubated with the respective antibodies of Fas (FL-335), Fas-L (C-178), caspase 3 (H-277), caspase 8 (H-134), caspase 9 (H-170), Bax (B-9), p16 (F-12), p21 (F-5), p53 (DO-1; 1/100 dilution) (Santa Cruz Biotechnology Inc., CA, U.S.A.), phospho-p53 (Ser15; 1/2000 dilution) and phospho-Rb (Ser795; 1/2000 dilution) (Cell Signaling Technology, MA, USA) for 2 hours at room temperature. Antibody recognition was detected, by incubating the membranes with the respective anti-mouse, anti-rabbit, anti-goat IgG secondary antibodies (1/1000 dilution; Santa Cruz Biotechnology Inc., CA, U.S.A.) conjugated to horseradish peroxidase, for 1 hour at room temperature, and visualized with the ECL Plus chemiluminescence system (Amersham, Arlington Heights, Ill.). For system control, SDS-PAGE gels, for every test sample, were prepared in duplicate, containing the same amount of protein; and the control gel was stained with coomassie blue. The other gel was used for Western Blot analysis. The intensity of the bands was analyzed by densitometry with a GS-800 Calibrated Imaging Densitometer (Quantity One 4.0.3 software; Bio-Rad). […] In addition, the activation of the death receptor-induced apoptosis-related caspases-8 was monitored.

Q: For CCCC=C1OC(=O)c2ccccc21 [BP, n-Butylidenephthalide], which IC50 ([1]; Table 2, read-out: Cytotoxicity (IC50) DBTRG-05MG) is on record?
A: 7 to 10 µg/mL

Q: What about the IC50 ([1]; Table 2, value in parentheses, read-out: Cytotoxicity (IC50) DBTRG-05MG) of the same compound?
A: 37.2 to 53.2 µM

Q: What about the Caspase-3 [2] of the same compound?
A: increase

Q: And the “cdk2, cdk4, cdk6 cyclins D1 and cycline E” value [2]?
A: decrease

Q: What about the “expression of the Fas Ligand” value [2] of the same compound?
A: suppressing

Q: And the “procaspase 8” value [2]?
A: declined

Q: And the procaspase-3 [2]?
A: declined

Q: What about the procaspase-9 [2] of the same compound?
A: declined

Q: What about the “expression of Fas, increase” value ([2]; 1.5 h) of the same compound?
A: 5.2 times

Q: And the p53 phosphorylation increase ([2]; 1.5 h)?
A: 5.2 times

Q: And the AIF expression increase ([2]; 48 h)?
A: 2.4 times

Q: And the Bax expression increase ([2]; 48 h)?
A: 16 times

Q: And the Rb phosphorylation decrease ([2]; 48 h)?
A: 0.2 times

Q: What about the “activated caspase-9” value ([2]; 48 h) of the same compound?
A: 25.8 times

Q: And the “activation of caspase 8” value ([2]; 48 h)?
A: 137.9

Q: What about the “expression of Fas, increase” value ([2]; 48 h) of the same compound?
A: 27.9 times

Q: What about the p16 expression increase ([2]; 48 h) of the same compound?
A: 3.1 times

Q: What about the p21 expression increase ([2]; 48 h) of the same compound?
A: 2.3 times

Q: What about the p53 expression increase ([2]; 48 h) of the same compound?
A: 1.4 times

Q: What about the p53 phosphorylation increase ([2]; 48 h) of the same compound?
A: 9.2 times

Reference: patent US7455861B2, “Angelicae sinensis extracts useful for treatment of cancers” (priority 2004, dated 2008)
